Experiments:
hA2B AR = biological target: T1, hA2B AR (Homo sapiens, UniProt P29275); assay: Inhibition of NECA-stimulated adenylyl cyclase activity (cAMP) in CHO cells expressing hA2B AR; assay type: cell-based; settings: mean ± SEM
T1 construct: expressed in transfected cells; host or cells: CHO cells
T1 sequence (P29275 1-332): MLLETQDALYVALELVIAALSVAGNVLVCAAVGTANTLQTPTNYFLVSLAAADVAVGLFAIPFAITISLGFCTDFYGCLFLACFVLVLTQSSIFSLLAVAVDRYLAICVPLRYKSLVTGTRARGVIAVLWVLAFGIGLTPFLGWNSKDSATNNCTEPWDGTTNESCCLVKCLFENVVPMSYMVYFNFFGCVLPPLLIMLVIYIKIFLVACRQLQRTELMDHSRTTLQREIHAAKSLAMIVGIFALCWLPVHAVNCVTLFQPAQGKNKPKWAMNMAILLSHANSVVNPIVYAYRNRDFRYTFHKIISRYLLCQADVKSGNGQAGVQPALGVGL
Procedure: Compounds 1–19 were evaluated for their binding affinity at hA1, hA2A, and hA3 ARs, stably transfected in Chinese hamster ovary (CHO) cells. […].
The binding affinity of the novel compounds was evaluated using radioligand competition experiments in CHO cells stably transfected with hA1 AR, hA2A AR, and hA3 AR subtypes. […]; The potency at hA2B AR, expressed on CHO cells, was determined by inhibition of NECA-stimulated adenylyl cyclase activity. […]
Binding data and concentration–response curves were fitted by a nonlinear regression with the Prism program (GraphPAD Prism 7 Software, San Diego, CA, USA). Each concentration was tested 3–5 times in duplicate and the Ki or IC50 (the concentration of antagonists that produces 50% inhibition of the agonist effect) values are given as the mean ± standard error (S.E.).

mice [1] = assay: Forced swimming test; assay type: in vivo, mouse; settings: for Immobility Time: mouse FST, single dose 26 min before test, last 4 min of 6 min, mean ± SEM of 10 mice, vehicle 193.7 ± 8.9
Procedure: (§1) To execute the tests, mice were divided into groups, each of which consisted of 10 animals. The tests were performed after a single p.o. administration of compound 18 at different dosages (10 mg Kg^−1 and 30 mg Kg^−1). Amitriptyline (15 mg Kg^−1) was used as the reference drug. Compounds were acutely administrated 26 min before the beginning of the experiment. In the FST (Table 4), the duration of immobility was recorded during the last 4 min of the 6 min test.
(§2) Male CD-1 albino mice (22–25 g; Envigo, Varese, Italy) were housed in CeSAL (Centro Stabulazione Animali da Laboratorio, University of Florence, Florence, Italy) and used at least one week after their arrival. Animals were housed in 26 cm × 41 cm cages (12 mice each) and fed with a standard laboratory diet and tap water ad libitum. They were kept at 23 ± 1 °C with a 12 h light/dark cycle, light at 7 a.m. Compound 18 was administered per o.s. whereas amitriptyline was by a s.c. route following the most widely used approach reported in the literature.
Mice were individually placed into glass cylinders (height: 25 cm, diameter: 10 cm) containing 12 cm of water maintained at 22–23 °C for 6 min. Immobility was considered the animal floated in the water, in an upright position, and made only small movements to keep its head above water. The immobility time was recorded during the last 4-min of the 6-min test. A decrease in the duration of immobility is indicative of an antidepressant-like effect.
Behavioral tests were performed by visual observation by researchers blinded to the treatments. Results were expressed as means ± SEM, variance was analyzed by ANOVA. A Bonferroni’s significant difference procedure was used as post-hoc comparison. p values of less than 0.05 and 0.01 were considered significant. Data were analyzed using the “Origin 8.1” software.

mice [2] = assay: Tail suspension test; assay type: in vivo; settings: mouse TST, single dose, mean ± SEM of 10 mice, vehicle 99.0 ± 6.8
Procedure: as §1
A decrease in the duration of immobility is indicative of an antidepressant-like effect. […] Accordingly, a similar activity was shown in the tail suspension test (Table 5) where the immobility time was measured in the first 2 min, when animals react to the inescapable stress, and in the last 4 min of the test, when the behavioral despair is established. Immobility was defined as the absence of any limb or body movements, except those caused by respiration. A reduction in the duration of the immobility time is indicative of an antidepressant-like effect.
as §2, with “Compound 18 was administered per o.s. whereas amitriptyline was by a s.c. route following the most widely used approach reported in the literature.” left out
A piece of tape was adhered to the upper middle of the tail of each animal, creating a flap with the overlap of tape. […] The duration of the test was 6 min and the immobility time was measured in the first 2 min, when animals react to the inescapable stress, and in the last 4 min of the test, when the behavioral despair is established. […]
Behavioral tests were performed by visual observation by researchers blinded to the treatments. Results were expressed as means ± SEM, variance was analyzed by ANOVA. […] Data were analyzed using the “Origin 8.1” software.

Nc1nc(-c2ccco2)nc2sc(Cc3ccccc3F)nc12 [compound 18, 2-(2-Fluorobenzyl)-5-(furan-2-yl)thiazolo[5,4-d]pyrimidin-7-amine]
IC50 (hA2B AR): 384 ± 55 nM
Immobility Time (mice [1]; 10 mg kg^−1 p.o.): 184.7 ± 5.6 s
Immobility Time (mice [1]; 30 mg kg^−1 p.o.): 143.5 ± 9.1 s
Antidepressant-like effect in FST (in words) (mice [1]; mouse, 10 and 30 mg Kg^−1 p.o., vs amitriptyline 15 mg Kg^−1): dose-dependently induced an antidepressant-like effect comparable to that induced by the clinically used drug amitriptyline
Immobility Time (mice [2]; 10 mg kg^−1 p.o.): 88.9 ± 10.16 s
Immobility Time (mice [2]; 30 mg kg^−1 p.o.): 56.5 ± 6.1 s

From publication PMC8308585, “Design and Synthesis of Novel Thiazolo[5,4-d]pyrimidine Derivatives with High Affinity for Both the Adenosine A1 and A2A Receptors, and Efficacy in Animal Models of Depression” (Pharmaceuticals, 2021)
